Test results: patent US20170334877A1, “REVAPRAZAN HYDROCHLORIDE POLYMORPHS AND PREPARATION METHOD THEREFOR” (JIANGSU TASLY DIYI PHARMACEUTICAL CO., LTD., priority 2014, published 2017)
Structures can show the parent of a compound that is named as a salt. Values belong to the compound of their own block, whether it stands above or below them.

Columns and labels:
[1] = Light illumination test (intense light, 4500±500 Lx); type: physicochemical; conditions: for Appearance color / Loss on drying (%) / Purity (%) / Relevant substances: light 4500±500 Lx; for Loss on drying (%) / Purity (%) / Relevant substances: hydrochloride
Description: Revaprazan hydrochloride crystalline form I is irradiated under such a condition that the light intensity is 4500±500 Lx, and is sampled on the 5th day and 10th day for detection, and the results are shown in Table 1. Revaprazan hydrochloride crystalline form II is irradiated under the condition that the light intensity is 4500±500Lx, and is sampled on the 5th day and 10th day for detection. Revaprazan hydrochloride polymorph III is irradiated under such a condition that the light intensity is 4500±500Lx, and is sampled on the 5th day and 10th day for detection. Revaprazan hydrochloride […] is irradiated under such a condition that the light intensity is 4500±500Lx, and is sampled on the 5th day and the 10th day for detection. Revaprazan hydrochloride crystalline form V is irradiated under the light intensity condition of 4500±500Lx; and is sampled on the 5th day and 10th day for detection.

[2] = High humidity test (25° C., relative humidity 75±5%); type: physicochemical; conditions: for Appearance color / Purity (%) / Relevant substances / Weight gain upon moisture absorption (%): 25° C., RH 75±5%
Procedure: Revaprazan hydrochloride crystalline form I is placed in an incubator of 25° C. (relative humidity of 75±5%), and is sampled on the 5th day and 10th day for detection. Revaprazan hydrochloride crystalline form II is placed in an incubator of 25° C. (relative humidity of 75±5%), and is sampled on the 5th day and 10th day for detection. Revaprazan hydrochloride polymorph III is placed in an incubator of 25° C. (relative humidity of 75±5%), and is sampled on the 5th day and the 10th day for detection. Revaprazan hydrochloride crystalline form IV is placed in an incubator of 25° C. Revaprazan hydrochloride crystal form 4 is placed in an incubator of 25° C. (the relative humidity is 75±5%), and is sampled on the 5th day and the 10th day for detection.

[3] = High temperature test (60° C. incubator); type: physicochemical; conditions: for Appearance color / Loss on drying (%) / Purity (%) / Relevant substances: 60° C., hydrochloride
Procedure: Revaprazan hydrochloride crystalline form I is placed in a 60° C. incubator, and is sampled on the 5th day and 10th day for detection, and the results are shown in Table 2. Revaprazan hydrochloride crystalline form II is placed in a 60° C. incubator, and is sampled on the 5th day and 10th day for detection, and the results are shown in Table 6. Revaprazan hydrochloride polymorph III is placed in an incubator of 60° C., and is sampled on the 5th day and the 10th day for detection. Revaprazan hydrochloride crystalline form IV is placed in an incubator of 60° C., and is sampled on the 5th day and the 10th day for detection. Revaprazan hydrochloride crystal form 4 is placed in an incubator of 60° C.; and is sampled on the 5th day and the 10th day for detection, and the results are shown in Table 23.

[4] = Accelerated test (40±2° C., relative humidity 75±5%, 6 months, sealed polyethylene film bag); type: physicochemical; conditions: for Appearance color / Purity (%) / Relevant substances: 40±2° C., RH 75±5%; for Purity (%) / Relevant substances: hydrochloride
Procedure: Revaprazan hydrochloride crystalline form I is sealed in a polyethylene film bag, is placed for 6 months under the conditions that the temperature is 40±2° C. and the relative humidity is 75±5%, and is respectively sampled at the end of the 1st Month, the 2nd Month, the 3rd Month and the 6^thMonth for detection; and the results are shown in Table 4. Revaprazan hydrochloride crystalline form II is sealed in a polyethylene film bag and is placed for 6 months under the conditions that the temperature is 40±2° C. and the relative humidity is 75±5%, and is respectively sampled at the end of the 1st Month, the 2nd Month, the 3rd Month and the 6th Month for detection; and the results are shown in Table 8. Revaprazan hydrochloride crystalline form III is sealed in a polyethylene film bag, is placed for 6 months under the conditions that the temperature is 40±2° C. and the relative humidity is 75±5%, and is sampled at the end of the 1st Month, the 2nd Month, the 3rd Month and the 6th Month for detection. Revaprazan hydrochloride crystalline form IV is sealed in a polyethylene film bag, is placed for 6 months under the conditions that the temperature is 40±2° C. and the relative humidity is 75±5%, and is sampled at the end of the 1st Month, the 2nd Month, the 3rd Month and the 6th Month for detection. Revaprazan hydrochloride crystalline form V is sealed in a polyethylene film bag and is placed for 6 months under the condition that the temperature is 40±2° C. and the relative humidity is 75±5%, and is sampled at the end of the 1st month, the 2nd month, the 3rd month and the 6th month for detection, and the results are shown in Table 20.

[5] = general statement in background art; cited from earlier work

Stability (conclusion in words) ([1]; intense light illumination, no obvious changes in appearance color, loss on drying, purity, relevant substances): stable
Appearance color ([1]; 5th day): White powder
Loss on drying (%) ([1]; 5th day): 0.28%
Purity (%) ([1]; 5th day): 99.92%
Relevant substances ([1]; 5th day): Not detected
Appearance color ([1]; 10th day): White powder
Loss on drying (%) ([1]; 10th day): 0.30%
Purity (%) ([1]; 10th day): 99.94%
Relevant substances ([1]; 10th day): Not detected
Appearance color ([1]; Day 0): White powder
Loss on drying (%) ([1]; Day 0): 0.27%
Purity (%) ([1]; Day 0): 99.96%
Relevant substances ([1]; Day 0): Not detected
Appearance color ([2]; 5th day): White powder
Purity (%) ([2]; 5th day, hydrochloride): 99.93%
Relevant substances ([2]; 5th day, hydrochloride): Not detected
Weight gain upon moisture absorption (%) ([2]; 5th day, hydrochloride): 0.42%
Appearance color ([2]; 10th day): White powder
Purity (%) ([2]; 10th day, hydrochloride): 99.95%
Relevant substances ([2]; 10th day, hydrochloride): Not detected
Weight gain upon moisture absorption (%) ([2]; 10th day, hydrochloride): 0.63%
Appearance color ([2]; Day 0): White powder
Weight gain upon moisture absorption (%) ([2]; Day 0): 0%
Purity (%) ([2]; Day 0, hydrochloride): 99.96%
Relevant substances ([2]; Day 0, hydrochloride): Not detected
Weight gain upon moisture absorption (in words) ([2]; high humidity condition): slight weight gain
Stability (conclusion in words) ([2]; high humidity, no obvious changes in appearance color, purity, relevant substances): stable
Appearance color ([3]; 5th day): White powder
Loss on drying (%) ([3]; 5th day): 0.23%
Purity (%) ([3]; 5th day): 99.95%
Relevant substances ([3]; 5th day): Not detected
Appearance color ([3]; 10th day): White powder
Loss on drying (%) ([3]; 10th day): 0.24%
Purity (%) ([3]; 10th day): 99.98%
Relevant substances ([3]; 10th day): Not detected
Appearance color ([3]; Day 0): White powder
Loss on drying (%) ([3]; Day 0): 0.21%
Purity (%) ([3]; Day 0): 99.96%
Relevant substances ([3]; Day 0): Not detected
Stability (conclusion in words) ([3]; high temperature, no obvious changes in appearance color, loss on drying, purity, relevant substances): stable
Appearance color ([4]; 1st month): White powder
Purity (%) ([4]; 1st month): 99.97%
Relevant substances ([4]; 1st month): Not detected
Appearance color ([4]; 2nd month): White powder
Purity (%) ([4]; 2nd month): 99.92%
Relevant substances ([4]; 2nd month): Not detected
Appearance color ([4]; 3rd month): White powder
Purity (%) ([4]; 3rd month): 99.96%
Relevant substances ([4]; 3rd month): Not detected
Appearance color ([4]; 6th month): White powder
Purity (%) ([4]; 6th month): 99.95%
Relevant substances ([4]; 6th month): Not detected
Appearance color ([4]; Month 0): White powder
Purity (%) ([4]; Month 0): 99.96%
Relevant substances ([4]; Month 0): Not detected
Stability (conclusion in words) ([4]; accelerated test, no obvious changes in appearance color, purity, relevant substances): stable
SMILES: Cc1nc(Nc2ccc(F)cc2)nc(N2CCc3ccccc3C2C)c1C (single isomer, unassigned) [revaprazan hydrochloride crystalline form I]

SMILES: Cc1nc(Nc2ccc(F)cc2)nc(N2CCc3ccccc3C2C)c1C (stereo not drawn) [Revaprazan hydrochloride]
Time to maximum plasma concentration [5]: about 1 h
